Results published in ChEMBL document CHEMBL1201862, “PubChem BioAssay data set” (2004).
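Dose response: 5 concentrations. Exposure: 48 h. Format: 96-well plates. Endpoint: linear interpolation; highest concentration if not reached. Here, GI50 denotes the concentration required for 50% inhibition of growth.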 Active and inactive are the calls of the source. Cut-off read from the data, not from the text of the source: active = GI50 up to about 1.1 µM and inactive = higher.

Legend:
Assay in all cases: NCI anticancer screen, dose series, 48 h
[1] = test system: SNB-75
[2] = test system: OVCAR-4
[3] = test system: HL-60
[4] = test system: IGROV-1
[5] = test system: Hs-578T
[6] = test system: CCRF-CEM
[7] = test system: SNB-19
[8] = test system: HCC 2998
[9] = test system: TK-10
[10] = test system: SR
[11] = test system: DU-145
[12] = test system: 786-0
[13] = test system: SF-539
[14] = test system: MDA-N
[15] = test system: ACHN
[16] = test system: NCI-H226
[17] = test system: T47D
[18] = test system: RPMI-8226
[19] = test system: LOX IMVI
[20] = test system: CAKI-1
[21] = test system: A498
[22] = test system: SK-MEL-2
[23] = test system: SF-295
[24] = test system: NCI-H23
[25] = test system: MDA-MB-231
[26] = test system: OVCAR-8
[27] = test system: UACC-62
[28] = test system: M14
[29] = test system: K562
[30] = test system: HCT-116
[31] = test system: A549
[32] = test system: HT-29
[33] = test system: Malme-3M
[34] = test system: SK-MEL-5
[35] = test system: SF-268
[36] = test system: NCI-H460
[37] = test system: SW-620
[38] = test system: COLO 205
[39] = test system: HCT-15
[40] = test system: MDA-MB-435
[41] = test system: NCI-H522
[42] = test system: SK-OV-3
[43] = test system: EKVX
[44] = test system: U-251
[45] = test system: SN12C
[46] = test system: HOP-62
[47] = test system: PC-3
[48] = test system: SK-MEL-28
[49] = test system: NCI/ADR-RES
[50] = test system: OVCAR-5
[51] = test system: OVCAR-3
[52] = test system: RXF 393
[53] = test system: UACC-257
[54] = test system: KM12
[55] = test system: HOP-92
[56] = test system: MCF7
[57] = test system: UO-31
[58] = test system: MOLT-4

N#CC(=N)c1ncn(CCO)c1NC(=O)C(F)(F)F
GI50 [1]: > 100 µM (inactive)
GI50 [2]: > 100 µM (inactive)
GI50 [3]: > 100 µM (inactive)
GI50 [4]: > 100 µM (inactive)
GI50 [5]: > 100 µM (inactive)
GI50 [6]: > 100 µM (inactive)
GI50 [7]: > 100 µM (inactive)
GI50 [8]: > 100 µM (inactive)
GI50 [9]: > 100 µM (inactive)
GI50 [10]: > 100 µM (inactive)
GI50 [11]: > 100 µM (inactive)
GI50 [12]: > 100 µM (inactive)
GI50 [13]: > 100 µM (inactive)
GI50 [14]: > 100 µM (inactive)
GI50 [15]: > 100 µM (inactive)
GI50 [16]: > 100 µM (inactive)
GI50 [17]: > 100 µM (inactive)
GI50 [18]: > 100 µM (inactive)
GI50 [19]: > 100 µM (inactive)
GI50 [20]: > 100 µM (inactive)
GI50 [21]: > 100 µM (inactive)
GI50 [22]: > 100 µM (inactive)
GI50 [23]: > 100 µM (inactive)
GI50 [24]: > 100 µM (inactive)
GI50 [25]: > 100 µM (inactive)
GI50 [26]: > 100 µM (inactive)
GI50 [27]: > 100 µM (inactive)
GI50 [28]: > 100 µM (inactive)
GI50 [29]: > 100 µM (inactive)
GI50 [30]: > 100 µM (inactive)
GI50 [31]: > 100 µM (inactive)
GI50 [32]: > 100 µM (inactive)
GI50 [33]: > 100 µM (inactive)
GI50 [34]: > 100 µM (inactive)
GI50 [35]: > 100 µM (inactive)
GI50 [36]: > 100 µM (inactive)
GI50 [37]: > 100 µM (inactive)
GI50 [38]: > 100 µM (inactive)
GI50 [39]: > 100 µM
GI50 [40]: > 100 µM (inactive)
GI50 [41]: > 100 µM (inactive)
GI50 [42]: > 100 µM (inactive)
GI50 [43]: > 100 µM (inactive)
GI50 [44]: > 100 µM (inactive)
GI50 [45]: > 100 µM (inactive)
GI50 [46]: > 100 µM (inactive)
GI50 [47]: > 100 µM (inactive)
GI50 [48]: > 100 µM (inactive)
GI50 [49]: > 100 µM (inactive)
GI50 [50]: > 100 µM (inactive)
GI50 [51]: > 100 µM (inactive)
GI50 [52]: > 100 µM (inactive)
GI50 [53]: > 100 µM (inactive)
GI50 [54]: > 100 µM (inactive)

CCCCCCCCCCCCc1ccc(S(=O)(=O)O)cc1
GI50 [1]: > 100 µM (inactive)
GI50 [2]: > 100 µM (inactive)
GI50 [3]: > 100 µM (inactive)
GI50 [4]: 11.5 µM (inactive)
GI50 [5]: > 100 µM (inactive)
GI50 [6]: > 100 µM (inactive)
GI50 [7]: > 100 µM (inactive)
GI50 [8]: > 100 µM (inactive)
GI50 [9]: > 100 µM (inactive)
GI50 [11]: > 100 µM (inactive)
GI50 [12]: > 100 µM (inactive)
GI50 [13]: > 100 µM (inactive)
GI50 [14]: > 100 µM (inactive)
GI50 [15]: > 100 µM (inactive)
GI50 [16]: 90.6 µM (inactive)
GI50 [17]: > 100 µM (inactive)
GI50 [18]: > 100 µM (inactive)
GI50 [19]: 49.5 µM (inactive)
GI50 [20]: > 100 µM (inactive)
GI50 [55]: 88.1 µM (inactive)
GI50 [21]: 26.8 µM (inactive)
GI50 [23]: > 100 µM (inactive)
GI50 [24]: > 100 µM (inactive)
GI50 [25]: > 100 µM (inactive)
GI50 [26]: > 100 µM (inactive)
GI50 [27]: 34.4 µM (inactive)
GI50 [28]: > 100 µM (inactive)
GI50 [29]: > 100 µM (inactive)
GI50 [30]: > 100 µM (inactive)
GI50 [31]: > 100 µM (inactive)
GI50 [32]: > 100 µM (inactive)
GI50 [56]: 98.9 µM (inactive)
GI50 [33]: > 100 µM (inactive)
GI50 [34]: > 100 µM (inactive)
GI50 [35]: > 100 µM (inactive)
GI50 [36]: > 100 µM (inactive)
GI50 [37]: > 100 µM (inactive)
GI50 [38]: > 100 µM (inactive)
GI50 [39]: > 100 µM
GI50 [40]: > 100 µM (inactive)
GI50 [42]: > 100 µM (inactive)
GI50 [57]: > 100 µM (inactive)
GI50 [43]: > 100 µM (inactive)
GI50 [44]: 89.7 µM (inactive)
GI50 [45]: > 100 µM (inactive)
GI50 [46]: > 100 µM (inactive)
GI50 [47]: > 100 µM (inactive)
GI50 [48]: > 100 µM (inactive)
GI50 [49]: > 100 µM (inactive)
GI50 [50]: > 100 µM (inactive)
GI50 [51]: > 100 µM (inactive)
GI50 [52]: > 100 µM (inactive)
GI50 [53]: 64.6 µM (inactive)
GI50 [54]: > 100 µM (inactive)
GI50 [58]: > 100 µM (inactive)

CC(=O)OCC1OC(N2C(c3ccccc3)=CC(c3cccs3)C(C#N)=C2S)C(OC(C)=O)C(OC(C)=O)C1OC(C)=O (centres undefined)
GI50 [1]: 4.43 µM (inactive)
GI50 [4]: > 100 µM (inactive)
GI50 [5]: 2.47 µM (inactive)
GI50 [6]: > 100 µM (inactive)
GI50 [7]: 47.3 µM (inactive)
GI50 [8]: > 100 µM (inactive)
GI50 [9]: > 100 µM (inactive)
GI50 [11]: > 100 µM (inactive)
GI50 [12]: 2.55 µM (inactive)
GI50 [13]: 2.34 µM (inactive)
GI50 [14]: > 100 µM (inactive)
GI50 [15]: > 100 µM (inactive)
GI50 [17]: > 100 µM (inactive)
GI50 [19]: > 100 µM (inactive)
GI50 [20]: > 100 µM (inactive)
GI50 [21]: 10.5 µM (inactive)
GI50 [22]: > 100 µM (inactive)
GI50 [23]: > 100 µM (inactive)
GI50 [24]: 5.18 µM (inactive)
GI50 [25]: 6.03 µM (inactive)
GI50 [28]: 1.84 µM (inactive)
GI50 [30]: 2.25 µM (inactive)
GI50 [31]: > 100 µM (inactive)
GI50 [56]: > 100 µM (inactive)
GI50 [35]: 4.49 µM (inactive)
GI50 [36]: > 100 µM (inactive)
GI50 [38]: > 100 µM (inactive)
GI50 [39]: > 100 µM
GI50 [42]: > 100 µM (inactive)
GI50 [57]: > 100 µM (inactive)
GI50 [44]: 10.3 µM (inactive)
GI50 [45]: > 100 µM (inactive)
GI50 [47]: > 100 µM (inactive)
GI50 [49]: > 100 µM (inactive)
GI50 [50]: 4.92 µM (inactive)
GI50 [51]: > 100 µM (inactive)
GI50 [52]: 3.43 µM (inactive)
GI50 [53]: > 100 µM (inactive)
GI50 [54]: > 100 µM (inactive)
GI50 [58]: > 100 µM (inactive)
